Like-named read-outs stand apart in the source and are kept apart here.

The results in this text go back to patent US9096591B2, “Tetracyclic compounds” (Medivation Technologies, Inc., priority 2007, dated 2015).

Assay [1] has as its target T1, human recombinant adrenergic α2B receptor (Homo sapiens, UniProt P18089).
T1 construct: expressed in transfected cells; host or cells: CHO-K1 cells
T1 sequence (P18089 1-450): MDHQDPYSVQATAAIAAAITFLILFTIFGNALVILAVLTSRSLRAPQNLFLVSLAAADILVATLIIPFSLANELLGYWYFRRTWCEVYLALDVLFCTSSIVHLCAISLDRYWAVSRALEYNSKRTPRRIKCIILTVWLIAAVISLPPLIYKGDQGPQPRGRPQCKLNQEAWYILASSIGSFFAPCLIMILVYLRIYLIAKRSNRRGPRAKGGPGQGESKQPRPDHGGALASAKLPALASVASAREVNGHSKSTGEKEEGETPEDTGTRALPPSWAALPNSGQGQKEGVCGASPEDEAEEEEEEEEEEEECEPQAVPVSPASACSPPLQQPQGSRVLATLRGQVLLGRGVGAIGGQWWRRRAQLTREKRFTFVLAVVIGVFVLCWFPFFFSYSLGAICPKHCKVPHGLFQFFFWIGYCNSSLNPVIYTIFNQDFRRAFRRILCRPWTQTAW
As to the kind of experiment: Adrenergic α2B radioligand binding ([3H]Rauwolscine). Details: Inhibition of ligand binding, Adren. alpha2B: concentration or dose not given beside the values. The following applies: percent inhibition of specific binding. As to the method:
To evaluate in radioligand binding assays the activity of compounds of the invention, human recombinant adrenergic α2B receptor expressed in Chinese hamster ovary (CHO-K1) cells (Uhlen S et al. Eur J. Pharmacol. 343(1):93, 1998) in a modified Tris-HCl buffer (50 mM Tris-HCl, pH 7.4, 12.5 mM MgCl2, 1 mM EDTA, 0.2% BSA) was used. Compounds of the invention were incubated with 2.5 nM [^3H]Rauwolscine for 60 minutes at 25° C. Non-specific binding was estimated in the presence of 10 μM Prozosin. Receptor proteins were filtered and washed, the filters were then counted to determine [^3H]Rauwolscine specifically bound. […] Biochemical assay results are presented as the percent inhibition of specific binding in Table 6.

In assay [2] the target is T2, human recombinant histamine H1 receptor (Homo sapiens, UniProt P35367).
T2 construct: expressed in transfected cells; host or cells: CHO cells
As to the kind of experiment: Histamine H1 radioligand binding ([3H]Pyrilamine). The note with it: for inhibition at 0.01 µM: 10 nM (0.01 μM) compound; for inhibition at 0.03 µM: 0.03 μM compound; for inhibition at 0.1 µM: 0.1 μM compound. In a few lines:
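CHO-expressed receptor in modified Tris-HCl buffer (50 mM, pH 7.4; 2 mM MgCl2, 100 mM NaCl, 250 mM sucrose); bound ligand measured after filtration and washing.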

Assay [3] deals with T3, human recombinant adrenergic α1D receptor (Homo sapiens, UniProt P25100).
T3 construct: expressed in transfected cells; host or cells: HEK-293 cells
T3 sequence (P25100 1-572): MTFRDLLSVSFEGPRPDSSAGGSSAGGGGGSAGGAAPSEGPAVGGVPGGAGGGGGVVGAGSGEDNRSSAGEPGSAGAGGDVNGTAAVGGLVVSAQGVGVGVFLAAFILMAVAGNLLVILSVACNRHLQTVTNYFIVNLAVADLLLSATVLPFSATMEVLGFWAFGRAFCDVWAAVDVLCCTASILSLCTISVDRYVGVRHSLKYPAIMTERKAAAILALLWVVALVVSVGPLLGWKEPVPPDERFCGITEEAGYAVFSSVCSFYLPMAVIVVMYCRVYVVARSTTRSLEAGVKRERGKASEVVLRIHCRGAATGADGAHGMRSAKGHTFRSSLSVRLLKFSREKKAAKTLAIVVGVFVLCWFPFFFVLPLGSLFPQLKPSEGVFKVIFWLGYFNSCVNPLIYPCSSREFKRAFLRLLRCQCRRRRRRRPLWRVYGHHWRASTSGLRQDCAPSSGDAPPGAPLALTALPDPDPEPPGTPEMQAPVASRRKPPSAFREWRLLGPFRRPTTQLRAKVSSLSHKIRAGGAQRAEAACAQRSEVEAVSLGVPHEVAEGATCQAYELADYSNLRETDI
The assay can be described thus: Adrenergic α1D radioligand binding ([3H]Prozosin). Details: Inhibition of ligand binding, Adren. alpha1D: concentration or dose not given beside the values. The note with it: percent inhibition of specific binding. The procedure:
Compounds of invention were incubated with 0.6 nM [^3H]Prozosin for 60 minutes at 25° C. Non-specific binding was estimated in the presence of 10 μM phentolamine. Receptor proteins were filtered and washed, the filters were then counted to determine [^3H]Prozosin specifically bound. […] Biochemical assay results are presented as the percent inhibition of specific binding in Table 6.

Setting [4] is: […] [3H]Pyrilamine, read-out: Histamine Binding H1, percent inhibition of specific binding.
[5] abbreviates: 1 μM compound, […] [3H]Pyrilamine, read-out: Histamine Binding H1, percent inhibition of specific binding.
[6] abbreviates: percent inhibition of specific binding, screened at 1 μM, read-out: Inhibition of ligand binding, Hist. H1.

T2 sequence (P35367 whole entry): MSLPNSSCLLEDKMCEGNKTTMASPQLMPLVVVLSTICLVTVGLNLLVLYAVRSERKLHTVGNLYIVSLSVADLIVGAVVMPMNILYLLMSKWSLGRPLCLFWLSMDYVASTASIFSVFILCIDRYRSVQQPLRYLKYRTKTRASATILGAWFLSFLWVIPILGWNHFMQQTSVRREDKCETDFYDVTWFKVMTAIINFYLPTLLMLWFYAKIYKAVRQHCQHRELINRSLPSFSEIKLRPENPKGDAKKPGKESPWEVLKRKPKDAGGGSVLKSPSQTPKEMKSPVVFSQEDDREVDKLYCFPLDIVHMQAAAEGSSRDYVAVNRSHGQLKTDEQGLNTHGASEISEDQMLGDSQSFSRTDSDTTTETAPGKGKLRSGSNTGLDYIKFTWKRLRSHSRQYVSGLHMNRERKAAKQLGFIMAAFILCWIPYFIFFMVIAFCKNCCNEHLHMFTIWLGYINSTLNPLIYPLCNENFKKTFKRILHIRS

Take `Cc1ccc2c(c1)c1c(n2CCc2ccncc2)CCN(C)C1` [Compound 22, 2,3,4,5-tetrahydro-2,8-dimethyl-5-(2-(pyridin-4-yl)ethyl)-1H-pyrido[4,3-b]indole]: the “Inhibition of ligand binding, Adren. alpha2B” value (shortened to “Inhibition … Adren. alpha2B”) in assay [1] amounted to 105%. In addition, in assay [2] (setting [4]), the inhibition at 0.01 µM was 36% and the inhibition at 0.03 µM stood at 63%. In addition, the inhibition at 1 µM in assay [2] (setting [5]) was determined as 100%. Further, the inhibition at 1 µM in assay [2] (setting [6]) turned out to be 100%. The “Inhibition of ligand binding, Adren. alpha1D” value (“Inhibition … Adren. alpha1D” for short) in assay [3] is recorded as 83%.

As to `CCN1CCc2c(c3cc(C)ccc3n2CCc2ccccn2)C1` [Compound 23, 2-ethyl-2,3,4,5-tetrahydro-8-methyl-5-(2-(pyridin-2-yl)ethyl)-1H-pyrido[4,3-b]indole], the “Inhibition … Adren. alpha2B” value in assay [1] was determined as 97%. The inhibition at 1 µM in assay [2] (setting [5]) and in assay [2] (setting [6]) was 69% throughout. In assay [3], the “Inhibition … Adren. alpha1D” value is reported as 61%.

`CCOC(=O)N1CCc2c(c3cc(C)ccc3n2CCc2ccccc2)C1` [Compound 24, ethyl 3,4-dihydro-8-methyl-5-phenethyl-1H-pyrido[4,3-b]indole-2(5H)-carboxylate]: the “Inhibition … Adren. alpha2B” value in assay [1] is −1%. The inhibition at 1 µM in assay [2] (setting [5]) and in assay [2] (setting [6]) was -4% in each case. Also, in assay [3], the “Inhibition … Adren. alpha1D” value turned out to be 6%.

As to `CCN1CCc2c(c3cc(C)ccc3n2CCc2ccncc2)C1` [Compound 27, 2-ethyl-2,3,4,5-tetrahydro-8-methyl-5-(2-(pyridin-4-yl)ethyl)-1H-pyrido[4,3-b]indole], in assay [1], the “Inhibition … Adren. alpha2B” value is listed as 100%. Moreover, in assay [2] (setting [4]), the inhibition at 0.03 µM was determined as 58% and the inhibition at 0.1 µM was found to be 77%. The inhibition at 1 µM in assay [2] (setting [5]) is 99%. In addition, in assay [2] (setting [6]), the inhibition at 1 µM was 99%. For the same compound, the “Inhibition … Adren. alpha1D” value in assay [3] turned out to be 63%.

For `CN1CCc2c(c3cc(Cl)ccc3n2CCc2ccccn2)C1` [Compound 30, 8-chloro-2,3,4,5-tetrahydro-2-methyl-5-(2-(pyridin-2-yl)ethyl)-1H-pyrido[4,3-b]indole], the “Inhibition … Adren. alpha2B” value in assay [1] is reported as 102%. For the same compound, the inhibition at 1 µM in assay [2] (setting [5]) and in assay [2] (setting [6]) was 80% throughout. Besides, the “Inhibition … Adren. alpha1D” value in assay [3] came to 68%.

As to `CCN1CCc2c(c3cc(C)ccc3n2CCc2ccc(C)nc2)C1` [Compound 31, 2-ethyl-2,3,4,5-tetrahydro-8-methyl-5-(2-(6-methylpyridin-3-yl)ethyl)-1H-pyrido[4,3-b]indole], the “Inhibition … Adren. alpha2B” value in assay [1] amounted to 91%. In addition, the inhibition at 1 µM in assay [2] (setting [5]) and in assay [2] (setting [6]) was 100% throughout. Moreover, in assay [3], the “Inhibition … Adren. alpha1D” value was 70%.

As for `Cc1ccc2c(c1)c1c(n2CCc2ccc(Cl)cc2)CCN(C)C1` [Compound 32, 5-(4-chlorophenethyl)-2,3,4,5-tetrahydro-2,8-dimethyl-1H-pyrido[4,3-b]indole], the “Inhibition … Adren. alpha2B” value in assay [1] worked out at 110%. Moreover, in assay [2] (setting [4]), the inhibition at 0.01 µM worked out at 52% and the inhibition at 0.1 µM was 87%. Also, the inhibition at 1 µM in assay [2] (setting [5]) amounted to 101%. In addition, in assay [2] (setting [6]), the inhibition at 1 µM was found to be 101%. Moreover, the “Inhibition … Adren. alpha1D” value in assay [3] turned out to be 94%.

With `Cc1ccc2c(c1)c1c(n2CCc2ccc(F)cc2)CCN(C)C1` [Compound 33, 5-(4-fluorophenethyl)-2,3,4,5-tetrahydro-2,8-dimethyl-1H-pyrido[4,3-b]indole], in assay [1], the “Inhibition … Adren. alpha2B” value is given as 100%. In assay [2] (setting [4]), the inhibition at 0.01 µM is 46%. Besides, the inhibition at 0.1 µM in assay [2] (setting [4]) was 89%. Also, the inhibition at 1 µM in assay [2] (setting [5]) and in assay [2] (setting [6]) was 98% throughout. In addition, the “Inhibition … Adren. alpha1D” value in assay [3] is 88%.

In the case of `CN1CCc2c(c3cc(Cl)ccc3n2CCc2ccccc2)C1` [Compound 36, 8-chloro-2,3,4,5-tetrahydro-2-methyl-5-phenethyl-1H-pyrido[4,3-b]indole], the “Inhibition … Adren. alpha2B” value in assay [1] was determined as 104%. For the same compound, in assay [2] (setting [4]), the inhibition at 0.01 µM is 48% and the inhibition at 0.1 µM turned out to be 91%. In assay [2] (setting [5]), the inhibition at 1 µM amounted to 99%. In assay [2] (setting [6]), the inhibition at 1 µM was found to be 99%. The “Inhibition … Adren. alpha1D” value in assay [3] is reported as 87%.

`CN1CCc2c(c3cc(I)ccc3n2CCc2ccccc2F)C1` [Compound 89, 5-(2-fluorophenethyl)-2,3,4,5-tetrahydro-8-iodo-2-methyl-1H-pyrido[4,3-b]indole]: the “Inhibition … Adren. alpha2B” value in assay [1] is recorded as 116%. Moreover, the inhibition at 1 µM in assay [2] (setting [5]) and in assay [2] (setting [6]) was 97% in each case. Further, the “Inhibition … Adren. alpha1D” value in assay [3] is reported as 82%.

As to `Cc1ccc2c(c1)c1c(n2Cc2ccccc2)CCN(C)C1` [Compound 137, 5-benzyl-2,3,4,5-tetrahydro-2,8-dimethyl-1H-pyrido[4,3-b]indole], in assay [1], the “Inhibition … Adren. alpha2B” value is listed as 3%. Further, the inhibition at 1 µM in assay [2] (setting [5]) and in assay [2] (setting [6]) was 11% in each case. Moreover, the “Inhibition … Adren. alpha1D” value in assay [3] was found to be 12%.

For `CCN1CCc2c(c3cc(C)ccc3n2Cc2ccc(C)nc2)C1` [Compound 138, 2-ethyl-2,3,4,5-tetrahydro-8-methyl-5-((6-methylpyridin-3-yl)methyl)-1H-pyrido[4,3-b]indole], the “Inhibition … Adren. alpha2B” value in assay [1] was found to be 19%. In addition, the inhibition at 1 µM in assay [2] (setting [5]) and in assay [2] (setting [6]) was 68% throughout. Moreover, the “Inhibition … Adren. alpha1D” value in assay [3] turned out to be 33%.

As for `Cc1ccc2c(c1)c1c(n2Cc2ccc(C)nc2)CCN(C)C1` [Compound 139, 2,3,4,5-tetrahydro-2,8-dimethyl-5-((6-methylpyridin-3-yl)methyl)-1H-pyrido[4,3-b]indole], the “Inhibition … Adren. alpha2B” value in assay [1] was found to be 52%. Also, the results for the inhibition at 1 µM in assay [2] (setting [5]) and in assay [2] (setting [6]) were 81% and 74%, respectively. Also, the “Inhibition … Adren. alpha1D” value in assay [3] is given as 25%.

As for `CCN1CCc2c(c3cc(C)ccc3n2Cc2ccccc2)C1` [Compound 140, 5-benzyl-2-ethyl-2,3,4,5-tetrahydro-8-methyl-1H-pyrido[4,3-b]indole], the “Inhibition … Adren. alpha2B” value in assay [1] was −4%. Besides, the inhibition at 1 µM in assay [2] (setting [5]) and in assay [2] (setting [6]) was 15% throughout. In assay [3], the “Inhibition … Adren. alpha1D” value is on record as 14%.

With `Cc1ccc2c(c1)c1c(n2CCC2CCCCC2)CCN(C)C1` [Compound 163, 5-(2-cyclohexylethyl)-2,3,4,5-tetrahydro-2,8-dimethyl-1H-pyrido[4,3-b]indole], in assay [1], the “Inhibition … Adren. alpha2B” value stood at 104%. Also, in assay [2] (setting [4]), the inhibition at 0.01 µM worked out at 59% and the inhibition at 0.1 µM stood at 92%. Moreover, the inhibition at 1 µM in assay [2] (setting [5]) came out at 103%. Further, the inhibition at 1 µM in assay [2] (setting [6]) is 103%. Moreover, the “Inhibition … Adren. alpha1D” value in assay [3] was determined as 49%.

Consider `Cc1ccc2c(c1)c1c(n2CCN2CCCC2)CCN(C)C1` [Compound 221, 2,3,4,5-tetrahydro-2,8-dimethyl-5-(2-(pyrrolidin-1-yl)ethyl)-1H-pyrido[4,3-b]indole], for which, in assay [1], the “Inhibition … Adren. alpha2B” value worked out at 26%. Further, the inhibition at 1 µM in assay [2] (setting [5]) and in assay [2] (setting [6]) was 78% each time. Further, the “Inhibition … Adren. alpha1D” value in assay [3] worked out at 30%.
